Assays:
Mus musculus = assay: Induction of vasodilation in mouse assessed as arbitrary units from vasodilation AUC curve at 100 mg/kg; format: functional
[1] = target: Hydroxycarboxylic acid receptor 2 (Homo sapiens) (UniProt Q8TDS4); assay: Displacement of [3H]nicotinic acid from human GPR109A receptor expressed in CHO-K1 cells at 25 uM; format: cell-based
[2] = target: Hydroxycarboxylic acid receptor 2 (Homo sapiens) (UniProt Q8TDS4); assay: Displacement of [3H]nicotinic acid from human GPR109A receptor expressed in CHO-K1 cells at 2.5 uM; format: cell-based
[3] = Plasma clearance in mouse; format: ADME, organism-based
[4] = Volume of distribution at steady state in mouse; format: ADME, organism-based; details: in vivo, read-out: Vdss
[5] = Half life in mouse; format: ADME, organism-based; details: in vivo
[6] = Cmax in mouse; format: ADME, organism-based; details: in vivo
[7] = Oral bioavailability in mouse; format: ADME, organism-based; details: in vivo

Row | Activity [1] [%] | Activity [2] [%] | SMILES | Activity (Mus musculus) | further results
1 |  |  | O=C(O)c1cccnc1 [NIACIN] | 707 | 
2 | 52 | 88 | O=C(CCc1ccccc1)Nc1ccccc1C(=O)O |  | 
3 |  |  | O=C(CCc1ccc2cc(O)ccc2c1)Nc1ccccc1C(=O)O | 59 | clearance [3]: 0.372 L/h/kg; Vd [4]: 0.7 L/kg; half-life [5]: 3.2 h; Cmax [6]: 6.6 µM; bioavailability [7]: 55%
4 | 40 | 78 | O=C(COc1ccccc1)Nc1ccccc1C(=O)O |  | 
5 | 33 | 69 | COc1ccc(OCC(=O)Nc2ccccc2C(=O)O)cc1 |  | 
